In test [1] the target is T1, STAT3 protein (Homo sapiens, UniProt P40763). As to the kind of experiment: Native polyacrylamide gel electrophoresis of STAT3 dimerization and its inhibition. To be noted: lane 4, with STA-21; 167 kDa dimer without inhibitor (lane 3); FIG. 5A. The format is biochemical. From the text:
Analysis of STAT3 dimerization and inhibition of STAT3 dimerization was confirmed by native polyacrylamide gel electrophoresis on 6% native gels using a standard protocol (Y. Jv, B. Li and R. Cao, Chem. Commun., 2010, 46, 80178019). The samples which formed the dimerization and inhibited the dimerization were loaded into the 6% native gel running at a voltage of 10 V cm^−1.

The target in test [2] is T1, STAT3 protein. As to the kind of experiment: Single nanoplasmonic biosensor (LSPR shift), inhibition of STAT3 dimerization with recombinant STAT3. The format is biochemical. More on the design: purchased Sigma Aldrich (Korea). As to the method: Individual amino-modified AuNPs, ˜50 nm AuNPs, were immobilized onto a glutaraldehyde coated coverslip slide (22×40×0.1 mm) by dropping 10 μL of the dilute amino-modified AuNP solution (FIG. 2). The glass slide was mounted to an RC-30HV closed-bath imaging chamber (Warner Instruments, USA) to visualize the AuNPs after the addition of adsorbates and reactants. The imaging chamber (Warner Instruments, USA) was subsequently inserted onto the holder of the darkfield microscope (Eclipse TE2000-U, Nikon, Japan), and the fluidic flow was set at 100 μL min^−1 by connection to a syringe pump (Harvard Apparatus).
Subsequently, the phosphorylation and the dimerization of STAT3 were conducted as follows. In the first step, after ˜50 nm AuNPs were immobilized onto a coverslip slide, all unbound AuNPs and contaminants were removed, and the surface of the amino-modified AuNPs was cleaned by injecting nuclease-free water for 1 h. […]
(§1) The changes in the LSPR spectra of the single amino-modified AuNPs in response to STAT3 protein conjugation, STAT3 phosphorylation, dimerization or inhibition of STAT3 dimerization were recorded. […] The wavelength shift (Δλmax) was calculated using the following formula: λmax (after reaction)−λmax (before reaction).

For test [3], the target named is T2, STAT3 protein extracted from MCF-7 cells (Homo sapiens, UniProt P40763).
T2 construct: Phosphorylated STAT3 protein (10 μg mL^−1) extracted from Michigan Cancer Foundation-7 (MCF-7) cells was used; endogenous in cells; host or cells: MCF-7
T2 sequence (P40763 2-770 limits assumed): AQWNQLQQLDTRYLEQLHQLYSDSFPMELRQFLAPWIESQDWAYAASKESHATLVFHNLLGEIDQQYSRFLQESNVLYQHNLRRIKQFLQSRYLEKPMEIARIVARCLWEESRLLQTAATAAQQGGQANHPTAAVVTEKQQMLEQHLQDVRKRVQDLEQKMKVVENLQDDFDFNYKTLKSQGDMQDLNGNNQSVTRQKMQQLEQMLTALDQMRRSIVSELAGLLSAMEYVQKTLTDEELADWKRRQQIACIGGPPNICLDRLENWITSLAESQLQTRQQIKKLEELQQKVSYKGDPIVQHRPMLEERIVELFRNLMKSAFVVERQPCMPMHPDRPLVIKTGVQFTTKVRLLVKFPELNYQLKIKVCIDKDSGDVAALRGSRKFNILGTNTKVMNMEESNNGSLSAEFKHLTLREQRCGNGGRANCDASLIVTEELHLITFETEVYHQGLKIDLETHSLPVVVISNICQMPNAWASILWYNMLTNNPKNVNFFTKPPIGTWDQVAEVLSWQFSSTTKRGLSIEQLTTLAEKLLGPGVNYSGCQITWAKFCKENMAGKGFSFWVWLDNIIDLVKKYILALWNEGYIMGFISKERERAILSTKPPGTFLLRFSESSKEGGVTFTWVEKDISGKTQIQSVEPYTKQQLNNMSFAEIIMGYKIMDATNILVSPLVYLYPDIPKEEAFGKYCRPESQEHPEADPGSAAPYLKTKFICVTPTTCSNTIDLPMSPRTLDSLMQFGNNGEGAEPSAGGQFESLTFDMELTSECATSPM
As to the kind of experiment: Single nanoplasmonic biosensor (LSPR shift), dimerization step with STAT3 extracted from MCF-7 cells treated with STA-21. The test is classed as cell-based. As to the method:
Subsequently, the phosphorylation and the dimerization of STAT3 were conducted as follows. In the first step, after ˜50 nm AuNPs were immobilized onto a coverslip slide, all unbound AuNPs and contaminants were removed, and the surface of the amino-modified AuNPs was cleaned by injecting nuclease-free water for 1 h. In the second step, after STAT3 protein was conjugated to the AuNPs, 300 μL, of the STAT3 solution ([…] in 50 mM Tris-HCl buffer, pH 7.4, containing 150 mM NaCl and 25% glycerol) containing STAT3 protein (10 μg mL^−1) was injected into the immobilized AuNPs and incubated overnight. […]
as §1
The MCF-7 cells, human breast tumor cell lines, were cultured in Dulbecco's modified Eagle's medium (DMEM, Thermo Scientific, USA) containing 10% (v/v) fetal bovine serum (FBS, Thermo Scientific, USA) and 3% penicillin/streptomycin (Thermo Scientific, USA) at 37° C. in a humidified atmosphere containing 5% CO2. The inocula of cells were determined using a hemacytometer with a vital dye, trypan blue. […]

T1 sequence (P40763 whole entry): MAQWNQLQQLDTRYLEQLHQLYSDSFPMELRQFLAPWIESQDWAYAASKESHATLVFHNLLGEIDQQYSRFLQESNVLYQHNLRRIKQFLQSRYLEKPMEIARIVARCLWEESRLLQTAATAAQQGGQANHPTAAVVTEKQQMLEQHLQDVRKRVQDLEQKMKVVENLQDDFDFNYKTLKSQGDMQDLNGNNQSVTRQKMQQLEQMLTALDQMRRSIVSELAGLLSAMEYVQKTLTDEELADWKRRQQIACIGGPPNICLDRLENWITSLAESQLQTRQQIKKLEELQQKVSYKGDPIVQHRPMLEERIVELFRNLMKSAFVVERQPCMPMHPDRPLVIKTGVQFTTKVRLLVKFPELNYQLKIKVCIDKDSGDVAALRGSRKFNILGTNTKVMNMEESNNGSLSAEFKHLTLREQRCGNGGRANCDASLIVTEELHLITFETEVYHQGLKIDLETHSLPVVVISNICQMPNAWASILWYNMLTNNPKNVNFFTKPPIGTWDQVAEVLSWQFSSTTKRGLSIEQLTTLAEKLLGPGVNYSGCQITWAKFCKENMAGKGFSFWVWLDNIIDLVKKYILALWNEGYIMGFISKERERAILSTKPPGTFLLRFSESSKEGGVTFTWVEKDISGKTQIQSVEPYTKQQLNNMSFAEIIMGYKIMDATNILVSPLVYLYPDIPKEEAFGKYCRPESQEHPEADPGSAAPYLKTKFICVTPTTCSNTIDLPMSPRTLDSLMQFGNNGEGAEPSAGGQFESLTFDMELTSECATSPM

Regarding `C[C@@H]1CC(=O)c2c(ccc3c2C(=O)c2cccc(O)c2C3=O)C1` [STA-21], on STAT3 protein [1], the “STAT3 species observed by Native PAGE” value worked out at 90 kDa monomer. For the same compound, on STAT3 protein [2] (STA-21 1 μM, recombinant STAT3 protein, 9.00 nm in the absence, FIG. 4C), the “red shift of the LSPR λmax in the dimerization step in the presence of inhibitor” value is listed as 2.65 nm. For the same compound, the STAT3 dimerization inhibited at STAT3 protein [2] (STA-21 at 10^3 nM, recombinant STAT3) worked out at 100%. In addition, the STAT3 dimer formation entry in test [3] (STAT3 from MCF-7 cells treated with STA-21) was “did not form a STAT3 dimer”. In test [3] (STAT3 from MCF-7 cells treated with STA-21 for 24 h, 10.00 nm in the absence, FIG. 4C), the “red shift of the LSPR λmax for the dimerization step in the presence of inhibitor” value came to 3.34 nm.

Values taken from patent US10458911B2, “Method for searching candidate material for anti-cancer drug using localized surface plasmon resonance” (KOREA UNIVERSITY RESEARCH AND BUSINESS FOUNDATION, priority 2015, dated 2019).
